Results on 72 compounds are retold here after EP2042491A1, “Pyridazines as fungicides” (Bayer CropScience AG, priority 2007, dated 2009).

Assay in the first series: not given
The note with it: Table 3; HPLC on reversed-phase C18, 40°C, 0.1% aqueous formic acid / acetonitrile, linear gradient 10-95% acetonitrile.
Turning to `Cc1nnc(Cl)c(-c2c(F)cccc2Cl)c1Sc1ccc(Cl)cc1` [3-33, 3-Chlor-4-(2-chlor-6-fluorphenyl)-5-(4-chlorphenylsulfanyl)-6-methylpyridazin], the “logP^a)” value was 4,65.

The same series, now with this note: given in the running text of the preparation examples; method presumably as footnote a) of the tables.
Usually logP stands for the decadic logarithm of the partition coefficient of the neutral form, usually between octanol and water. Take `CCOC(=O)/C(C)=N\N(Cc1ccccc1)C(=O)Cc1c(F)cccc1Cl` [V-1, Ethyl (2Z)-2-{benzyl[(2-chlor-6-fluorphenyl)acetyl] hydrazono}propanoat]: the log partition coefficient (logP) is 3.87.

Another series is described as follows: physchem.
Settings: not given
One may read the chromatographic logP as lipophilicity estimated from chromatographic retention. The compound `Cc1nnc(Cl)c(-c2c(F)cccc2F)c1NC(C)C(C)C` (racemic) [1-62] registered a chromatographic logP of 2.99.
In turn, `Cc1nnc(Cl)c(-c2c(F)cccc2Cl)c1NC(C)C(C)C` (racemic) [1-82] yielded a chromatographic logP of 3.21.
`Cc1nnc(Cl)c(-c2c(F)cccc2F)c1N[C@H](C)C(C)C` [1-46] displayed a chromatographic logP of 3.04.
As for `Cc1nnc(Cl)c(-c2c(F)cccc2F)c1NCC(C)C` [1-48], the chromatographic logP stood at 2.64.
`Cc1nnc(Cl)c(-c2c(F)cccc2F)c1NCC(C)(C)C` [1-49] came in with a chromatographic logP of 3.06.
Same read-out and setting: the value for `Cc1nnc(Cl)c(-c2c(F)cccc2F)c1NC(C)C` [1-51] was 2.36; that for `Cc1nnc(Cl)c(-c2c(F)cccc2F)c1NCC1CC1` [1-52] was 2.46; that for `COCC(C)Nc1c(C)nnc(Cl)c1-c1c(F)cccc1F` (stereo not shown) [1-53] was 2.25.
On to `Cc1nnc(Cl)c(-c2c(F)cccc2F)c1N1CCC(C)CC1` [1-58, 3-Chlor-4-(2,6-difluorphenyl)-6-methyl-5-(4-methylpiperidin-1-yl)pyridazin], for which the chromatographic logP worked out at 3.87.
As for `Cc1nnc(Cl)c(-c2c(F)cccc2F)c1N1CCOCC1` [1-59], the chromatographic logP was determined as 2.19.
Compound `Cc1nnc(Cl)c(-c2c(F)cccc2F)c1NCc1ccccc1` [1-63] displayed a chromatographic logP of 2.67.
Same read-out and setting: the value for `Cc1nnc(Cl)c(-c2c(F)cccc2F)c1N1CCCC1C` (stereo not shown) [1-64] was 3.08; that for `Cc1nnc(Cl)c(-c2c(F)cccc2F)c1N1CCCC1` [1-65] was 2.57.
The same measure, in the same setting: the value for `Cc1nnc(Cl)c(-c2c(F)cccc2F)c1N(C)CC(C)C` [1-66] was 3.65.
Still for that read-out and setting: for `Cc1nnc(Cl)c(-c2c(F)cccc2Cl)c1NC1CC1` [1-86] the value was 2.35.
Compound `Cc1nnc(Cl)c(-c2c(F)cccc2Cl)c1N1CCOCC1` [1-94] registered a chromatographic logP of 2.39.
In turn, `Cc1nnc(Cl)c(-c2c(F)cccc2Cl)c1N1CC[Si](C)(C)CC1` [1-95] had a chromatographic logP of 4.75.
For `Cc1nnc(Cl)c(-c2c(F)cccc2Cl)c1N1CCC2(C)CC2C1` (stereo not shown) [1-96], the chromatographic logP turned out to be 4.25.
`Cc1nnc(Cl)c(-c2c(F)cccc2Cl)c1N1CCCC1C` (stereo not shown) [1-97] registered a chromatographic logP of 3.32.
In turn, `Cc1nnc(Cl)c(-c2c(F)cccc2Cl)c1N1CCCC1` [1-98] displayed a chromatographic logP of 2.82.
`Cc1nnc(Cl)c(-c2c(F)cccc2Cl)c1Nc1ccc(Cl)cc1` [1-99] returned a chromatographic logP of 3.18.
`Cc1nnc(Cl)c(-c2c(F)cccc2F)c1OCC(C)C` [2-32] returned a chromatographic logP of 3.57.
On to `C#CCOc1c(C)nnc(Cl)c1-c1c(F)cccc1F` [2-36], for which the chromatographic logP is 2.5.
In turn, `Cc1nnc(Cl)c(-c2c(F)cccc2F)c1Oc1ccc(Cl)cc1` [2-39] yielded a chromatographic logP of 3.86.
`Cc1nnc(Cl)c(-c2c(F)cccc2F)c1OCC1CC1` [2-41] had a chromatographic logP of 3.1.
Still for that read-out and setting: for `COc1ccc(COc2c(C)nnc(Cl)c2-c2c(F)cccc2F)cc1` [2-42, 3-Chlor-4-(2,6-difluorphenyl)-5-(4-Methoxybenzyloxy)-6-methylpyridazin] the value was 3.35; for `Cc1nnc(Cl)c(-c2c(F)cccc2F)c1OCC1(C)CC1` [2-43], 3.53.
`Cc1nnc(Cl)c(-c2c(F)cccc2Cl)c1Oc1ccc(Cl)cc1` [2-60] returned a chromatographic logP of 4.13.
`Cc1nnc(Br)c(-c2c(F)cccc2Cl)c1Oc1ccc(Cl)cc1` [2-62] displayed a chromatographic logP of 4.12.
Turning to `Cc1nnc(Cl)c(-c2c(F)cccc2Cl)c1Oc1ccccc1F` [2-65], the chromatographic logP turned out to be 3.51.
Compound `Cc1nnc(Cl)c(-c2c(F)cccc2Cl)c1Oc1cccc(F)c1` [2-66] showed a chromatographic logP of 3.65.
On to `Cc1nnc(Cl)c(-c2c(F)cccc2Cl)c1Oc1ccc(F)cc1` [2-67], for which the chromatographic logP worked out at 3.56.
`Cc1nnc(Cl)c(-c2c(F)cccc2Cl)c1Oc1cccc(C(F)(F)F)c1` [2-68] returned a chromatographic logP of 4.13.
The same measure, in the same setting: for `Cc1nnc(Cl)c(-c2c(F)cccc2Cl)c1Oc1cccc(C#N)c1` [2-69] the value was 3.14.
With `Cc1nnc(Cl)c(-c2c(F)cccc2Cl)c1Oc1ccc(Cl)cc1Cl` [2-70], the chromatographic logP was 4.46.
The same measure, in the same setting: for `Cc1nnc(Cl)c(-c2c(F)cccc2Cl)c1Oc1cccc(C(C)(C)C)c1` [2-71] the value was 4.92.
For the compound `COc1cc(Cl)cc(Oc2c(C)nnc(Cl)c2-c2c(F)cccc2Cl)c1` [2-72], the chromatographic logP came to 4.13.
Still for that read-out and setting: the value for `COc1cccc(Oc2c(C)nnc(Cl)c2-c2c(F)cccc2Cl)c1` [2-73] was 3.56; that for `Cc1nnc(Cl)c(-c2c(F)cccc2Cl)c1Oc1cccc(Cl)c1` [2-74] was 4.03; that for `Cc1nnc(Cl)c(-c2c(F)cccc2Cl)c1Oc1ccc(Cl)c(Cl)c1` [2-75] was 4.41.
For the compound `Cc1cccc(Oc2c(C)nnc(Cl)c2-c2c(F)cccc2Cl)c1` [2-76], the chromatographic logP is 3.99.
Same read-out and setting: the value for `Cc1nnc(Cl)c(-c2c(F)cccc2Cl)c1Oc1ccc(C#N)cc1` [2-77] was 3.18; that for `Cc1nnc(Cl)c(-c2c(F)cccc2Cl)c1Oc1cccc(N(C)C)c1` [2-78] was 3.85; that for `Cc1nnc(Cl)c(-c2c(F)cccc2Cl)c1Oc1cccc(OC(F)(F)F)c1` [2-79] was 4.32.
In the case of `Cc1nnc(Cl)c(-c2c(F)cccc2Cl)c1Oc1cc(Cl)ccc1Cl` [2-80], the chromatographic logP worked out at 4.27.
The compound `Cc1nnc(Cl)c(-c2c(F)cccc2Cl)c1Oc1cc(Cl)cc(Cl)c1` [2-81] returned a chromatographic logP of 4.61.
The same measure, in the same setting: the value for `Cc1nnc(Cl)c(-c2c(F)cccc2Cl)c1Oc1ccc(Oc2ccc(Cl)cc2)cc1` [2-82] was 5.03; that for `COCCOCCOc1c(C)nnc(Cl)c1-c1c(F)cccc1Cl` [2-83] was 2.58; that for `COCCOc1c(C)nnc(Cl)c1-c1c(F)cccc1Cl` [2-84] was 2.6.
`Cc1nnc(Cl)c(-c2c(F)cccc2Cl)c1OC1CCOCC1` [2-85]: the chromatographic logP is 2.68.
Consider `Cc1nnc(Cl)c(-c2c(F)cccc2F)c1Sc1ccc(Cl)cc1` [3-20, 3-Chlor-4-(2,6-difluorphenyl)-5-(4-chlorphenylsulfanyl)-6-methylpyridazin], for which the chromatographic logP came to 4.35.
Consider `Cc1nnc(Cl)c(-c2c(F)cccc2F)c1SC(C)C(C)C` (stereo not shown) [3-21], for which the chromatographic logP came out at 4.37.
For `CCC(C)Sc1c(C)nnc(Cl)c1-c1c(F)cccc1F` (stereo not shown) [3-23], the chromatographic logP amounted to 3.99.
In the case of `Cc1nnc(Cl)c(-c2c(F)cccc2F)c1SC(C)C` [3-25], the chromatographic logP was found to be 3.57.
For the compound `Cc1nnc(Cl)c(-c2c(F)cccc2Cl)c1Sc1ccc(Cl)cc1` [3-33, 3-Chlor-4-(2-chlor-6-fluorphenyl)-5-(4-chlorphenylsulfanyl)-6-methylpyridazin], the chromatographic logP came to 4.65.
Take `Cc1cccc(Sc2c(C)nnc(Cl)c2-c2c(F)cccc2Cl)c1` [3-38]: the chromatographic logP was 4.41.
On the same count and under the same terms, for `Cc1nnc(Cl)c(-c2c(F)cccc2Cl)c1Sc1ccc(Cl)cc1Cl` [3-39] the value was 4.87; for `Cc1nnc(Cl)c(-c2c(F)cccc2Cl)c1Sc1ccccc1F` [3-40], 3.99.
`Cc1nnc(Cl)c(-c2c(F)cccc2Cl)c1Sc1cccc(C(F)(F)F)c1` [3-41] registered a chromatographic logP of 4.51.
With `Cc1nnc(Cl)c(-c2c(F)cccc2Cl)c1Sc1cccc(F)c1` [3-42], the chromatographic logP came out at 4.08.
In turn, `COc1cccc(Sc2c(C)nnc(Cl)c2-c2c(F)cccc2Cl)c1` [3-43] yielded a chromatographic logP of 4.03.
Turning to `Cc1nnc(Cl)c(-c2c(F)cccc2Cl)c1Sc1ccc(F)cc1` [3-44], the chromatographic logP was determined as 4.03.
In the case of `Cc1nnc(Cl)c(-c2c(F)cccc2Cl)c1Sc1cccc(OC(F)(F)F)c1` [3-46], the chromatographic logP was 4.72.
On the same count and under the same terms, for `Cc1nnc(Cl)c(-c2c(F)cccc2F)c1[S+]([O-])c1ccc(Cl)cc1` (stereo not shown) [4-1, 3-Chlor-4-(2,6-difluorphenyl)-5-[(4-chlorphenyl)sulfinyl]-6-methylpyridazin] the value was 3.47; for `Cc1nnc(Cl)c(-c2c(F)cccc2F)c1O` [5-1, 3-Chlor-4-(2,6-difluorphenyl)-5-hydroxy-6-methylpyridazin], 1.41.
Turning to `COc1nnc(C)c(N2CCC(C)CC2)c1-c1c(F)cccc1F` [6-1, 4-(2,6-Difluorphenyl)-3-methoxy-6-methyl-5-(4-methylpiperidin-1-yl)pyridazin], the chromatographic logP was 3.39.
Same read-out and setting: for `NN(Cc1ccccc1)C(=O)Cc1c(F)cccc1Cl` [III-1, N-Benzyl-2-(2-chlor-6-fluorphenyl)acetohydrazid] the value was 2.69; for `Cc1nn(Cc2ccccc2)c(=O)c(-c2c(F)cccc2Cl)c1O` [VI-1, 2-Benzyl-4-(2-chlor-6-fluorphenyl)-5-hydroxy-6-methylpyridazin-3(2H)-on], 2.58.
The same measure, in the same setting: for `Cc1n[nH]c(=O)c(-c2c(F)cccc2Cl)c1O` [VII-1, 4-(2-Chlor-6-fluorphenyl)-5-hydroxy-6-methylpyridazin-3(2H)-on] the value was 0.88; for `Cc1nnc(Cl)c(-c2c(F)cccc2Cl)c1Cl` [VIII-1, 3,5-Dichlor-4-(2-chlor-6-fluorphenyl)-6-methylpyridazin], 3.24; for `Cc1nnc(Cl)c(-c2c(F)cccc2F)c1Cl` [VIII-2, 3,5-Dichlor-4-(2,6-difluorphenyl)-6-methylpyridazin], 2.93.
